# Reference: the METLIN SMRT retention time set (Domingo-Almenara et al. 2019)
# Assay: gradient 5% acetonitrile 3 min, to 50% in 2 min, to 85% in 15 min, held 3 min, 100 µL/min
# Conditions: column: Zorbax Extend-C18 2.1 x 50 mm; eluents: water / acetonitrile, 0.1% formic acid
# Procedure, shortened: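 In both positive and negative ionization mode, a quadrupole time-of-flight mass spectrometer coupled to HPLC analyzed pure standards run in mixtures of ~100 molecules. The Zorbax Extend-C18 column (2.1 × 50 mm, 1.8 μm) was operated at 100 μL/min with water and acetonitrile, each containing 0.1% formic acid. The dead volume was 40 μL and the dwell volume 900 μL. Retention time came from adduct peaks that were computationally picked and individually inspected by hand.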
row,RP-LC retention time,Structure (SMILES)
1,1060 s,O=C(Nc1ccccc1)C1CCCN(c2nccnc2Sc2ccccc2)C1 (configuration not stated)
2,926 s,O=C(C1COc2ccccc2O1)N1CCN(c2cc(-c3ccc(Cl)cc3)[nH]n2)CC1 (configuration not stated)
3,872 s,CCc1ccc(-n2nc(N3CCCC(C(=O)NCc4ccc(OC)cc4OC)C3)ccc2=O)cc1 (configuration not stated)
4,831 s,COc1ccc(NC(=O)CCc2cccc3[nH]ccc23)c(OC)c1
5,875 s,Cc1ccc(NC(=O)C2CCN(S(=O)(=O)c3cc(C(=O)N4CCCC4)n(C)c3)CC2)cc1Cl
6,957 s,O=C(c1ccc(Br)o1)N1CCC(c2cnn(-c3ccccc3)c2)CC1
7,1020 s,CN(C(=O)CSc1nc(-c2ccccc2)no1)c1ccc(F)cc1
8,668 s,O=C(NCc1csc(C2CCN(C(=O)c3cc(F)ccc3F)CC2)n1)C1CC1
9,921 s,CN1C(=O)c2cccc3c(C(=O)c4ccccc4)ccc(c23)C1=O
10,909 s,Cc1nn(-c2ccccc2)c(-n2cccc2)c1CNC(=O)NCc1ccc(F)cc1
11,707 s,O=C(Cn1ccc2cc(S(=O)(=O)N3CCCCCC3)ccc21)N1CCN(c2ccccn2)CC1
12,933 s,COc1cccc(NC(=O)Nc2ccc3c(c2)CCN3S(=O)(=O)c2ccccc2)c1
13,937 s,O=C(Cn1cccc1-c1nnc(C2CCC2)o1)NCc1cccc(Br)c1
14,926 s,O=C(NCCCc1ccccc1)C1CCCN(c2ccc(=O)n(-c3cccc(Cl)c3)n2)C1 (configuration not stated)
15,570 s,O=C(O)c1cnc(NCc2ccncc2)nc1-c1ccccc1
16,966 s,O=c1ccc(N2CCCN(S(=O)(=O)c3ccc(F)cc3F)CC2)nn1-c1ccc(Cl)cc1
17,675 s,CCN1CCOc2ccc(NC(=O)c3ccc4c(c3)OCO4)cc2C1=O
18,1050 s,CCOC(=O)c1cc(S(=O)(=O)N2CCCC2C(=O)Nc2cccc(C(F)(F)F)c2)cn1C (configuration not stated)
19,1270 s,O=C(CC1CCCCC1)Nc1ccc(-c2nc(-c3ccccc3)co2)cc1
20,1020 s,O=C(Nc1ccc(F)c(F)c1)C1CCCN(C(=O)Cc2cccc3ccccc23)C1 (configuration not stated)
21,733 s,Cc1ccc(CN2CCN(CC(=O)Nc3ccc4c(c3)OCCO4)C(=O)C2=O)cc1
22,853 s,CCOc1ccc(-c2ccc(=O)n(CCCC(=O)Nc3ccccc3SC)n2)cc1
23,635 s,O=C1c2ccccc2C(=O)c2c1cccc2N1CCCC(CO)C1 (configuration not stated)
24,867 s,O=C(NC(c1ccccc1)c1nnc(N2CCCC2)o1)c1cccc(Cl)c1 (configuration not stated)
25,939 s,O=C(CCSc1ccc(F)cc1)Nc1ccccc1-c1nc2ccccc2[nH]1

# Continued, compound first:
row,Structure (SMILES),RP-LC retention time
1,COc1ccc(-c2nc(Cn3c(C)cc(C)c(-c4nc(-c5ccccc5)no4)c3=O)c(C)o2)cc1,1230 s
2,O=C(Cn1ncc2c(N3CCN(c4ccccn4)CC3)ncnc21)Nc1cc(F)cc(F)c1,634 s
3,Cn1c(=O)c2cc(C(=O)Nc3ccc(F)c(Cl)c3)sc2n(C)c1=O,847 s
4,CCCS(=O)(=O)N1CCc2ccc(NC(=O)c3ccno3)cc2C1,716 s
5,Cn1nc(CNC(=O)c2cnccn2)c2ccccc21,689 s
6,Cc1ccc2nc(-c3cccc(S(=O)(=O)N4CC(C)OC(C)C4)c3)cn2c1 (configuration not stated),640 s
7,CN(CC1(C)CCOCC1)C(=O)c1ccc2ccccc2n1,727 s
8,CCOC(=O)c1cnc2nc(C)ccc2c1Nc1ccc(OC)cc1OC,702 s
9,Cc1ccc(-c2nc3n(CC(=O)NC4CCCC4)c4c(c(=O)n3n2)CCC4)cc1,789 s
10,CN(C)C(=O)c1cc2cccc3c2n1CCS3,816 s
11,COCCNC(=O)C1(c2ccc(NC(=O)c3cccs3)cc2)CC1,730 s
12,CC(C)(C)C(=O)N1CCC(C(=O)N[C@@H]2CCCC[C@H]2NC(=O)c2ccc(F)cc2)CC1,698 s
13,CCC1CN1P(=O)(Oc1ccc(Cl)cc1)N1CC1CC (configuration not stated),980 s
14,O=C(C1COc2ccccc2O1)N1CCCN(C2CCN(CC3CC3)C2=O)CC1 (configuration not stated),560 s
15,CCc1cccc(NS(=O)(=O)c2cc3n(c2)CCN(C(C)C)C3=O)c1,816 s
16,O=C(Nc1ccc(F)cc1F)N1CC(Cc2nc(-c3cnccn3)no2)C1,690 s
17,CC1(C)CC(O)CC(C)(C)N1[O-],578 s
18,COc1cccc2c1C(=O)c1c(O)c3c(c(O)c1C2=O)C[C@@](O)(/C(C)=N\O)C[C@@H]3OC1CC(N)C(O)C(C)O1 (some centres not stated),681 s
19,Cc1nc(-c2csc(S(=O)(=O)N3CCC(C(=O)NCCc4cccs4)CC3)c2)no1,860 s
20,COCC(=O)N1CCCCCNC(=O)[C@@H]2CCCC[C@@H]21,631 s
21,CCN(C(C)=O)c1nc(-c2ccc(Br)cc2)cs1,1170 s

row,Structure (SMILES),RP-LC retention time
1,CN(C)S(=O)(=O)c1ccc(-c2nnc(C(=O)NCc3ccc(F)cc3)o2)cc1,844 s
2,CCNC(=O)N1CC(n2cc(C(=O)NCCOC)nn2)C1,1260 s
3,CC(=O)c1ccc(Oc2ccccc2)cc1,920 s
4,CCS(=O)(=O)c1ccc(-c2ccc(NS(C)(=O)=O)cc2)nn1,643 s
5,CCCNS(=O)(=O)c1cc(-c2nc(C(C)C)cs2)sc1C,1160 s
6,Cc1ccc(CNC(=O)C2Cn3cccc3C(=O)N2CC(C)C)o1 (configuration not stated),746 s
7,COc1ccc(C2CC(=O)N(c3ccc(C)c(C)c3)C(=O)C2)cc1OC,893 s
8,Cc1nc(-c2cn(C(C)C)c3ncccc23)sc1C(=O)NCc1ccco1,912 s
9,CC(C)c1nn2c(S(=O)(=O)NCc3cccs3)c(C(C)C)nc2s1,966 s
10,O=C(CCC1CCCN(S(=O)(=O)c2cccc(F)c2)C1)NC1CCCCC1 (configuration not stated),936 s
11,COc1ccc(-c2nc(-c3nnn(Cc4ccccc4)c3C)no2)c(OC)c1,990 s
12,Cc1cc(=O)n(CC(=O)Nc2cc(Cl)ccc2C)c(N2CCOCC2)n1,736 s
13,COc1ccc(-c2nc(C)c3c(n2)N(C(C)C)C(=O)C3)cc1,929 s
14,O=C(NCc1ccco1)C1CCN(S(=O)(=O)c2cc(-c3noc(C4CCC4)n3)cs2)CC1,917 s
15,Fc1cccc(-c2nnc(Cc3nc(-c4ccc5c(c4)OCO5)no3)o2)c1,958 s
16,CCN(CC)CCNC(=O)CCc1cc2cc(C)ccc2[nH]c1=O,587 s
17,Cc1ccc(NC(=O)NCC2CCOCC2)c(C)c1,713 s
18,COc1ccc(CN(C)Cc2cc(=O)n3ccc(C)cc3n2)cc1,608 s
19,CCn1cc(C(=O)Nc2ccccc2C)c2cccnc21,791 s
20,COc1ccc(-n2c(=O)c(C(=O)NCc3ccc4c(c3)OCO4)c(O)c3cccnc32)cc1,1090 s
21,Brc1ccc(OCc2nn3c(-c4ccccn4)nnc3s2)cc1,872 s
